Assay results published in ChEMBL document CHEMBL1201862, “PubChem BioAssay data set” (2004).
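All cell lines were grown in 96-well plates and treated with compound for 48 hours. The concentration for 50% growth inhibition is given as GI50.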 Activity calls are given as the source filed them. Rule as the data show it: active = GI50 up to about 1.1 µM and inactive = higher.

Legend:
Assay in all cases: NCI anticancer screen, dose series, 48 h
CCRF-CEM = test system: CCRF-CEM
SNB-19 = test system: SNB-19
HT-29 = test system: HT-29
TK-10 = test system: TK-10
COLO 205 = test system: COLO 205
OVCAR-4 = test system: OVCAR-4
NCI-H522 = test system: NCI-H522
SF-268 = test system: SF-268
SF-539 = test system: SF-539
UACC-62 = test system: UACC-62
UACC-257 = test system: UACC-257
MDA-MB-435 = test system: MDA-MB-435
T47D = test system: T47D
HCT-15 = test system: HCT-15
HOP-62 = test system: HOP-62
HOP-92 = test system: HOP-92
MOLT-4 = test system: MOLT-4
MDA-MB-231 = test system: MDA-MB-231
M14 = test system: M14
KM12 = test system: KM12
OVCAR-8 = test system: OVCAR-8
SK-OV-3 = test system: SK-OV-3
SK-MEL-28 = test system: SK-MEL-28
HCC 2998 = test system: HCC 2998
BT-549 = test system: BT-549
SK-MEL-5 = test system: SK-MEL-5
OVCAR-3 = test system: OVCAR-3
K562 = test system: K562
NCI-H460 = test system: NCI-H460
HCT-116 = test system: HCT-116
A549 = test system: A549
UO-31 = test system: UO-31
SN12C = test system: SN12C
HL-60 = test system: HL-60
NCI-H23 = test system: NCI-H23
PC-3 = test system: PC-3
SNB-75 = test system: SNB-75
786-0 = test system: 786-0
LOX IMVI = test system: LOX IMVI
SF-295 = test system: SF-295
U-251 = test system: U-251
MCF7 = test system: MCF7
IGROV-1 = test system: IGROV-1
NCI/ADR-RES = test system: NCI/ADR-RES
DU-145 = test system: DU-145
SW-620 = test system: SW-620
SR = test system: SR
OVCAR-5 = test system: OVCAR-5
EKVX = test system: EKVX
Malme-3M = test system: Malme-3M
A498 = test system: A498
NCI-H226 = test system: NCI-H226
ACHN = test system: ACHN
CAKI-1 = test system: CAKI-1
SK-MEL-2 = test system: SK-MEL-2
MDA-N = test system: MDA-N
RXF 393 = test system: RXF 393
RPMI-8226 = test system: RPMI-8226

Cc1ccc(S(=O)(=O)N2CCCSCCSCCCSCC2)cc1
GI50 (CCRF-CEM): > 100 µM (inactive) | GI50 (SNB-19): > 100 µM (inactive) | GI50 (HT-29): > 100 µM (inactive) | GI50 (TK-10): > 100 µM (inactive) | GI50 (COLO 205): > 100 µM (inactive) | GI50 (OVCAR-4): > 100 µM (inactive) | GI50 (NCI-H522): > 100 µM (inactive) | GI50 (SF-268): > 100 µM (inactive) | GI50 (SF-539): > 100 µM (inactive) | GI50 (UACC-62): > 100 µM (inactive) | GI50 (UACC-257): > 100 µM (inactive) | GI50 (MDA-MB-435): > 100 µM (inactive) | GI50 (T47D): > 100 µM (inactive) | GI50 (HCT-15): > 100 µM | GI50 (HOP-62): > 100 µM (inactive) | GI50 (HOP-92): > 100 µM (inactive) | GI50 (MOLT-4): > 100 µM (inactive) | GI50 (MDA-MB-231): > 100 µM (inactive) | GI50 (M14): > 100 µM (inactive) | GI50 (KM12): > 100 µM (inactive) | GI50 (OVCAR-8): > 100 µM (inactive) | GI50 (SK-OV-3): > 100 µM (inactive) | GI50 (SK-MEL-28): > 100 µM (inactive) | GI50 (HCC 2998): > 100 µM (inactive) | GI50 (BT-549): > 100 µM (inactive) | GI50 (SK-MEL-5): > 100 µM (inactive) | GI50 (OVCAR-3): > 100 µM (inactive) | GI50 (K562): > 100 µM (inactive) | GI50 (NCI-H460): > 100 µM (inactive) | GI50 (HCT-116): > 100 µM (inactive) | GI50 (A549): > 100 µM (inactive) | GI50 (UO-31): > 100 µM (inactive) | GI50 (SN12C): > 100 µM (inactive) | GI50 (HL-60): > 100 µM (inactive) | GI50 (NCI-H23): > 100 µM (inactive) | GI50 (PC-3): > 100 µM (inactive) | GI50 (SNB-75): 86.7 µM (inactive) | GI50 (786-0): > 100 µM (inactive) | GI50 (LOX IMVI): > 100 µM (inactive) | GI50 (SF-295): > 100 µM (inactive) | GI50 (U-251): > 100 µM (inactive) | GI50 (MCF7): > 100 µM (inactive) | GI50 (IGROV-1): > 100 µM (inactive) | GI50 (NCI/ADR-RES): > 100 µM (inactive) | GI50 (DU-145): > 100 µM (inactive) | GI50 (SW-620): > 100 µM (inactive) | GI50 (SR): > 100 µM (inactive) | GI50 (OVCAR-5): > 100 µM (inactive) | GI50 (EKVX): > 100 µM (inactive)

CC1(C)C2CCC1(C)C(N/C(Sc1ccccc1)=C(/C(Cl)=C(Cl)Cl)[N+](=O)[O-])C2 (centres undefined)
GI50 (SNB-19): 18.1 µM (inactive) | GI50 (HT-29): 10.4 µM (inactive) | GI50 (OVCAR-4): 13.4 µM (inactive) | GI50 (SF-268): 12 µM (inactive) | GI50 (SF-539): 13.5 µM (inactive) | GI50 (UACC-62): 9.14 µM (inactive) | GI50 (UACC-257): 14.3 µM (inactive) | GI50 (MDA-MB-435): 10.4 µM (inactive) | GI50 (T47D): 13.5 µM (inactive) | GI50 (Malme-3M): 15.1 µM (inactive) | GI50 (HCT-15): 10.4 µM | GI50 (A498): 15 µM (inactive) | GI50 (HOP-62): 18.5 µM (inactive) | GI50 (MOLT-4): 3.22 µM (inactive) | GI50 (MDA-MB-231): 10.4 µM (inactive) | GI50 (M14): 13.2 µM (inactive) | GI50 (KM12): 4.8 µM (inactive) | GI50 (OVCAR-8): 13.8 µM (inactive) | GI50 (NCI-H226): 16.8 µM (inactive) | GI50 (SK-OV-3): 13.8 µM (inactive) | GI50 (SK-MEL-28): 12.4 µM (inactive) | GI50 (ACHN): 13.5 µM (inactive) | GI50 (HCC 2998): 15.2 µM (inactive) | GI50 (BT-549): 12.4 µM (inactive) | GI50 (OVCAR-3): 4.92 µM (inactive) | GI50 (K562): 6.35 µM (inactive) | GI50 (NCI-H460): 15.3 µM (inactive) | GI50 (HCT-116): 15.5 µM (inactive) | GI50 (A549): 14.5 µM (inactive) | GI50 (UO-31): 13.2 µM (inactive) | GI50 (SN12C): 13.9 µM (inactive) | GI50 (NCI-H23): 12.3 µM (inactive) | GI50 (PC-3): 9.06 µM (inactive) | GI50 (SNB-75): 15.6 µM (inactive) | GI50 (786-0): 14 µM (inactive) | GI50 (CAKI-1): 15.2 µM (inactive) | GI50 (SK-MEL-2): 12.5 µM (inactive) | GI50 (SF-295): 13.1 µM (inactive) | GI50 (U-251): 11.4 µM (inactive) | GI50 (MCF7): 11.2 µM (inactive) | GI50 (MDA-N): 10.6 µM (inactive) | GI50 (NCI/ADR-RES): 14 µM (inactive) | GI50 (DU-145): 17.7 µM (inactive) | GI50 (SW-620): 11.7 µM (inactive) | GI50 (OVCAR-5): 13.9 µM (inactive) | GI50 (EKVX): 13.4 µM (inactive)

COC(=O)C12C(=O)CC3CCC1C32C(=O)OC (centres undefined)
GI50 (CCRF-CEM): > 100 µM (inactive) | GI50 (SNB-19): > 100 µM (inactive) | GI50 (HT-29): > 100 µM (inactive) | GI50 (TK-10): > 100 µM (inactive) | GI50 (COLO 205): > 100 µM (inactive) | GI50 (OVCAR-4): > 100 µM (inactive) | GI50 (NCI-H522): > 100 µM (inactive) | GI50 (SF-268): > 100 µM (inactive) | GI50 (SF-539): > 100 µM (inactive) | GI50 (UACC-62): > 100 µM (inactive) | GI50 (UACC-257): > 100 µM (inactive) | GI50 (MDA-MB-435): > 100 µM (inactive) | GI50 (Malme-3M): > 100 µM (inactive) | GI50 (HCT-15): > 100 µM | GI50 (HOP-62): > 100 µM (inactive) | GI50 (MOLT-4): > 100 µM (inactive) | GI50 (MDA-MB-231): > 100 µM (inactive) | GI50 (M14): > 100 µM (inactive) | GI50 (KM12): > 100 µM (inactive) | GI50 (OVCAR-8): > 100 µM (inactive) | GI50 (NCI-H226): > 100 µM (inactive) | GI50 (SK-OV-3): > 100 µM (inactive) | GI50 (SK-MEL-28): > 100 µM (inactive) | GI50 (ACHN): > 100 µM (inactive) | GI50 (HCC 2998): > 100 µM (inactive) | GI50 (BT-549): > 100 µM (inactive) | GI50 (SK-MEL-5): > 100 µM (inactive) | GI50 (OVCAR-3): > 100 µM (inactive) | GI50 (K562): > 100 µM (inactive) | GI50 (NCI-H460): > 100 µM (inactive) | GI50 (HCT-116): > 100 µM (inactive) | GI50 (RXF 393): > 100 µM (inactive) | GI50 (A549): > 100 µM (inactive) | GI50 (UO-31): > 100 µM (inactive) | GI50 (SN12C): > 100 µM (inactive) | GI50 (NCI-H23): > 100 µM (inactive) | GI50 (PC-3): > 100 µM (inactive) | GI50 (SNB-75): > 100 µM (inactive) | GI50 (786-0): > 100 µM (inactive) | GI50 (LOX IMVI): > 100 µM (inactive) | GI50 (CAKI-1): > 100 µM (inactive) | GI50 (SK-MEL-2): > 100 µM (inactive) | GI50 (SF-295): > 100 µM (inactive) | GI50 (U-251): > 100 µM (inactive) | GI50 (MCF7): > 100 µM (inactive) | GI50 (IGROV-1): > 100 µM (inactive) | GI50 (MDA-N): > 100 µM (inactive) | GI50 (NCI/ADR-RES): > 100 µM (inactive) | GI50 (DU-145): > 100 µM (inactive) | GI50 (RPMI-8226): > 100 µM (inactive) | GI50 (SW-620): > 100 µM (inactive) | GI50 (SR): > 100 µM (inactive) | GI50 (OVCAR-5): > 100 µM (inactive) | GI50 (EKVX): > 100 µM (inactive)
